From BigSolDB 2.1

O=C1Nc2ccccc2C1=O
Conditions | solubility (mole fraction)
in 1,4-dioxane, 293.15 K | 0.0162
in 1,4-dioxane, 298.15 K | 0.0188
in 1,4-dioxane, 303.15 K | 0.0218
in 1,4-dioxane, 308.15 K | 0.0252
in 1,4-dioxane, 313.15 K | 0.029
in 1,4-dioxane, 318.15 K | 0.0331
in 1,4-dioxane, 323.15 K | 0.0378
in 1,4-dioxane, 328.15 K | 0.0428
in 1,4-dioxane, 333.15 K | 0.0484
in DMF, 283.15 K | 0.127
in DMF, 288.25 K | 0.135
in DMF, 293.25 K | 0.143
in DMF, 298.15 K | 0.151
in DMF, 303.15 K | 0.16
in DMF, 308.25 K | 0.17
in DMF, 313.25 K | 0.179
in DMF, 318.45 K | 0.19
in DMF, 323.15 K | 0.198
in DMF, 328.15 K | 0.209
in DMF, 333.15 K | 0.218
in THF, 289.85 K | 0.0197
in THF, 297.15 K | 0.0234
in THF, 301.15 K | 0.0254
in THF, 305.15 K | 0.028
in THF, 308.95 K | 0.0301
in THF, 314.05 K | 0.0335
in THF, 318.35 K | 0.0367
in THF, 323.15 K | 0.0399
in acetone, 287.25 K | 0.0109
in acetone, 292.75 K | 0.0125
in acetone, 298.45 K | 0.014
in acetone, 302.65 K | 0.0158
in acetone, 308.35 K | 0.0174
in acetone, 312.65 K | 0.0193
in acetone, 318.15 K | 0.0217
in acetone, 323.35 K | 0.0241
in acetonitrile, 283.15 K | 0.0042
in acetonitrile, 288.35 K | 0.00498
in acetonitrile, 294.65 K | 0.00608
in acetonitrile, 298.15 K | 0.00675
in acetonitrile, 303.15 K | 0.00789
in acetonitrile, 308.15 K | 0.00893
in acetonitrile, 313.15 K | 0.0103
in acetonitrile, 318.15 K | 0.0118
in acetonitrile, 323.15 K | 0.0136
in dichloromethane, 278.15 K | 0.000788
in dichloromethane, 282.35 K | 0.000876
in dichloromethane, 286.25 K | 0.000982
in dichloromethane, 290.55 K | 0.0011
in dichloromethane, 293.15 K | 0.0012
in dichloromethane, 296.95 K | 0.00132
in dichloromethane, 299.85 K | 0.00141
in dichloromethane, 303.25 K | 0.00153
in dichloromethane, 307.65 K | 0.0017
in ethyl acetate, 288.15 K | 0.00421
in ethyl acetate, 293.35 K | 0.0048
in ethyl acetate, 298.25 K | 0.00565
in ethyl acetate, 303.65 K | 0.00637
in ethyl acetate, 308.65 K | 0.00733
in ethyl acetate, 313.35 K | 0.00822
in ethyl acetate, 318.15 K | 0.0092
in ethyl acetate, 323.35 K | 0.0103
in toluene, 288.15 K | 0.000588
in toluene, 293.15 K | 0.000637
in toluene, 298.15 K | 0.000685
in toluene, 303.15 K | 0.000714
in toluene, 308.15 K | 0.000771
in toluene, 313.15 K | 0.000819
in toluene, 318.15 K | 0.000884
in toluene, 323.15 K | 0.000926
